The target in data set [1] is T1, recombinant human α4β2 nicotinic acetylcholine receptor (Homo sapiens, UniProt P17787+P43681).
T1 construct: expressed in transfected cells
In words: Determination of IC50 and Kb values, aequorin luminescence assay in CHO cells. Type of data set: cell-based. The method, then: Determination of IC50 and Kb Values for Nicotinic Acetylcholine α4β2 Receptor Ligands
A stable CHO cell line expressing recombinant human α4β2 nicotinic acetylcholine receptor transiently expressing aequorin protein was used for cell-based assay. The assay offers a non-radioactive based approach to determine binding of a compound to ligand gated ion channels. In this specific assay, the level of intracellular calcium which is modulated by activation or inhibition of the channel is measured. Both the channel and aequorin genes are expressed at high level under the control of powerful CMV promotor.
The above cells were grown in 96 well clear bottom white plates in Hams F12 medium containing 10% fetal bovine serum (FBS). Prior to the addition of compounds and/or agonist, cells were serum starved for six hours. Coelentarazine (a prosthetic group for aequorin protein) was added in the medium containing 0.1% dialyzed serum and incubated overnight at 27° C. Cells were washed with assay buffer and increasing concentration of the test compound or standard were added to the plate for antagonist mode. A fixed concentration of the agonist (eipbatidine) was injected into the plate and luminescence was measured for 10 seconds. For evaluation of the compound in agonist mode, increasing concentration of the standard or test compound was injected and the luminescence was measured. Luminescence units were plotted against the compound concentrations using Graphpad software. IC50 values of the compounds were defined as the concentration required in reducing the luminescent units by 50%. The Kb values were calculated by feeding the concentration of the agonist used in the assay and its EC50 value in the same software.
Literature References: Karadsheh M. S., Shah M. S., Tang X., Macdonald R. L. and Stitzel J. A. Functional characterization of mouse α4β2 nicotinic acetylcholine receptors stably expressed in HEK293T cells. J. Neurochem. 2004, 91, 1138-1150.

Data set [2] concerns the target Human or Rat Nicotinic Acetylcholine α4β2 receptor (UniProt P09483+P12390). In words: Binding assay for Human or Rat Nicotinic Acetylcholine α4β2 receptor ([3H] Cytisine). Particulars: [3H] Cytisine 2.5 nM, rat brain frontal cortex or recombinant human cDNA expressed in CHO cells. As for the experimental part: Binding assay for Human or Rat Nicotinic Acetylcholine α4β2 receptor
Compounds can be evaluated according to the following procedures.
Materials and Methods: • Receptor source: Rat brain frontal cortex or recombinant human cDNA expressed in CHO cells • Radioligand: [^3H] Cytisine 15-40 Ci/mmol • Final ligand concentration—[2.5 nM] • Non-specific determinant: Epibatidine-[0.1 μM] • Reference compound: Epibatidine • Positive control: Epibatidine Incubation Conditions:
Increasing concentrations of test compounds or standard were incubated with membrane receptors and radioligand in 120 mM NaCl, 2.5 mM KCl, 1 mM CaCl2, 1 mM MgCl2 and 50 mM TRIS-HCl (pH 7.4) for 60 minutes at room temperature. The reaction was terminated by rapid vacuum filtration onto the glass fiber filters. Radioactivity trapped onto the filters was determined and compared to the control values in order to ascertain any interactions of the test compound(s) with either cloned human or rat receptor binding site.
Literature Reference: Bunnelle W. H., Daanen J. F., Ryther K. B., Schrimpf M. R., Dart M. J., Gelain A., Meyer M. D., Frost J. M., Anderson D. J., Buckley M., Curzon P., Cao Y-J., Puttfarcken P., Searle X., Ji J., Putman C. B., Surowy C., Toma L. and Barlocco D. Structure-Activity Studies and Analgesic Efficacy of N-(3-Pyridinyl)-Bridged Bicyclic Diamines, Exceptionally Potent Agonists at Nicotinic Acetylcholine Receptors. J. Med. Chem. 2007, 50, […].

Data set [3] is described as follows: Rodent Brain Penetration Study. Particulars: in vivo; Wistar rat male, P.O, 5 mg/kg; read-out: Steady State Brain Penetration (Cb/Cp). The method, then: Rodent Brain Penetration Study
Male Wistar rats (230-280 grams) obtained from NIN (National Institute of Nutrition, Hyderabad, India) was used as an experimental animal. Three animals were housed in each cage. Animals were given water and food ad libitum throughout the experiment, and maintained on a 12 hours light/dark cycle.
NCE compound was dissolved in water and administered orally. At Tmax (0.5, 1.0 and 2.0) animals were sacrificed to collect the plasma and brain tissue and was homogenized. Plasma and Brain was stored frozen at −20° C. until analysis. The concentrations of the NCE compound in plasma and Brain were determined using LC-MS/MS method.
The NCE compounds were quantified in plasma and brain homogenate by validated LC-MS/MS method using solid phase extraction technique. NCE compounds were quantified in the calibration range of 1-500 ng/mL in plasma and brain homogenate. Study samples were analyzed using calibration samples in the batch and quality control samples spread across the batch. Extents of brain-blood ratio were calculated (Cb/Cp).

Data set [4] in a line: Rodent Pharmacokinetic Study. Particulars: Wistar, in vivo, Wister rat male; for AUC(0-t) / Cmax / Tmax / half-life: 5 mg/kg; for bioavailability: P.O 5 mg/kg vs I.V 5 mg/kg. As for the experimental part:
Rodent Pharmacokinetic Study
Male wistar rats (230-280 grams) obtained from NIN (National Institute of Nutrition, Hyderabad, India) were used as an experimental animal. Three to five animals were housed in each cage. Animals were kept fasted over night and maintained on a 12 hours light/dark cycle. […]
At each time point blood was collected by jugular vein. Plasma was stored frozen at −20° C. until analysis. The concentrations of the NCE compound in plasma were determined using LC-MS/MS method. Schedule time points: Pre dose 0.25, 0.5, 1, 1.5, 2, 3, 4, 6, 8, 10, 12 and 24 hours after dosing (n=3). The NCE compounds were quantified in plasma by validated LC-MS/MS method using solid phase extraction technique. NCE compounds were quantified in the calibration range of 1-2000 ng/mL in plasma. Study samples were analyzed using calibration samples in the batch and quality control samples spread across the batch. Pharmacokinetic parameters Cmax, Tmax, AUCs, T112 and Bioavailability were calculated by non-compartmental model using software WinNonlin version 5.0.1.

Another data set has as its system Male Wister rats. In words: Reversal of Formalin Induced Nociception. It counts as in vivo. Particulars: rat, p.o., formalin 5% v/v subplantar. As for the experimental part: Reversal of Formalin Induced Nociception
The anti-nociceptive properties of compounds of this invention were evaluated using a model of pain: the Formalin Induced Nociception model. Male Wister rats (230-280 grams) obtained from N. I. N. (National Institute of Nutrition, Hyderabad, India) was used as experimental animals.
Rats were habituated for 20 minutes in the arena before the experiment was started. Duration of licks, bites and flinches were noted from 0-10 minutes and 20-35 minutes after administration of formalin, subplantar into the right hind paw at concentrations of 5% v/v. 50 μL of water for injection was injected into the right hind paw of the rats of the sham group. Compounds of this invention were administered orally prior to formalin administration.

[5] abbreviates: antagonist mode, fixed concentration of agonist epibatidine, CHO cells, luminescence, read-out: Kb.

Each structure is given as a SMILES string. Where a name gives a salt, the structure may show the parent alone. Read-outs that look alike come from different tables or passages of the source.

T1 sequence (P43681 29-627): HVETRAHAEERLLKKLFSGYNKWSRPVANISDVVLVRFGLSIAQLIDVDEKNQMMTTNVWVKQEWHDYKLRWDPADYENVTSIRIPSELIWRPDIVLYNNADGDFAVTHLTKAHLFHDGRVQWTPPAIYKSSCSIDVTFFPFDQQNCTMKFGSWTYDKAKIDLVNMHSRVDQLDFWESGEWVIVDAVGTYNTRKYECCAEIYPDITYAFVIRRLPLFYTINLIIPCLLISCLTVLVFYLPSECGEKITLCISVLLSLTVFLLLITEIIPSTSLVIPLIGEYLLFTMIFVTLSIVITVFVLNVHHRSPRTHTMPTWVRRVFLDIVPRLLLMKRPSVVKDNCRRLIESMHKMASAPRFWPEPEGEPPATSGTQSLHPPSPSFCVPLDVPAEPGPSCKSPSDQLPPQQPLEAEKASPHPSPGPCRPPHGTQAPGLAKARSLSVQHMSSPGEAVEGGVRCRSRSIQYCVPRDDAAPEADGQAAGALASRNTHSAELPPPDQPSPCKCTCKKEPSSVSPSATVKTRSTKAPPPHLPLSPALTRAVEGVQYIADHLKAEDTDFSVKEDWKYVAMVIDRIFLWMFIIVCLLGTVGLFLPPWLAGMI
T1 sequence (P17787 26-502): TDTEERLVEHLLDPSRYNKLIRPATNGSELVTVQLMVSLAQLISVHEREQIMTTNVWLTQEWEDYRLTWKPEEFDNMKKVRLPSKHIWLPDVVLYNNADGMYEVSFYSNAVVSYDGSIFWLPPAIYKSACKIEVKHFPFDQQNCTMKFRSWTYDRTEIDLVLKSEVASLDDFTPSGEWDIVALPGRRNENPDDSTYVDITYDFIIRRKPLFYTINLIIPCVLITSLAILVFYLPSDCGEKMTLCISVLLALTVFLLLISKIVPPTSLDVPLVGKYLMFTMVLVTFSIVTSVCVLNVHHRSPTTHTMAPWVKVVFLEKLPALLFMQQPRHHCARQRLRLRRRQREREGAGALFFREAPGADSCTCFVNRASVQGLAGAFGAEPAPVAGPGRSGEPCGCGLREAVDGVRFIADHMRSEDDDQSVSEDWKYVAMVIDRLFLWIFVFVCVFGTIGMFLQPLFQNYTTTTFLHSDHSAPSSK

`CN1C(COc2cccnc2)CC2CC21` (centres unmarked) [Example 2, 2-Methyl-3-(pyridin-3-yloxymethyl)-2-azabicyclo[3.1.0]hexane]: the Kb in data set [1] worked out at 0.4 nM. Besides, the Ki (as a rule, the dissociation constant of the complex between target and ligand, obtained from inhibition or displacement) in data set [2] (read-out: Ki) worked out at 5.5 nM.

On to `Cc1ncccc1OCC1CC2CC2N1` (centres unmarked) [Example 3, 3-(2-Methylpyridin-3-yl-oxymethyl)-2-azabicyclo[3.1.0]hexane dihydrochloride], for which, in data set [2] (read-out: Ki), the Ki turned out to be 1000 nM.

Take `Cl.Cl.Clc1ncccc1OCC1CC2CC2N1` (centres unmarked) [Example 4, 3-(2-Chloropyridin-3-yloxymethyl)-2-azabicyclo[3.1.0]hexane dihydrochloride]: the Kp in data set [3] is 3.6 ± 0.99. Besides, in data set [4] (iv, I.V), the AUC(0-t) – broadly, exposure summed from dosing to a finite time, without extrapolation to infinity – stood at 4.17 ± 0.878 µg·h/mL; the Cmax (in general, the highest concentration seen after dosing) was determined as 2.6 ± 0.042 µg/mL; the Tmax (usually the time at which the peak concentration occurs) amounted to 4.8 min; the half-life – broadly, how long it takes for the measured level to halve – was 93 ± 15 min. Besides, the bioavailability – broadly, the share of a dose that reaches the circulation, judged against a reference dose that is usually intravenous – in data set [4] (po) was 54 ± 23%. For the same compound, in data set [4] (po, P.O), the AUC(0-t) was 2.16 ± 0.658 µg·h/mL, the Cmax is 0.921 ± 0.268 µg/mL, the Tmax worked out at 15 min and the half-life is 129 ± 30.6 min. The Ki in data set [2] (read-out: Ki) amounted to 17.5 nM.

`Cl.Cl.Clc1ccc(OCC2CC3CC3N2)cn1` (centres unmarked) [Example 5, 3-(2-Chloropyridin-5-yloxymethyl)-2-azabicyclo[3.1.0]hexane dihydrochloride]: the Kp in data set [3] worked out at 2.34 ± 0.25. For the same compound, in data set [4] (iv, I.V), the area under the curve AUC(0-t) was 5.38 ± 0.821 µg·h/mL, the Cmax was found to be 2.72 ± 0.588 µg/mL, the Tmax was determined as 4.8 min and the half-life is 151 ± 25.8 min. In data set [4] (po), this compound yielded a bioavailability of 66 ± 12%. In data set [4] (po, P.O), the AUC(0-t) was found to be 3.51 ± 0.657 µg·h/mL, the Cmax was determined as 1.91 ± 0.675 µg/mL, the Tmax turned out to be 15 min and the half-life is 200 ± 36 min. The Ki in data set [2] is 1.5 nM.

As to `Cl.Cl.Fc1ccc(OCC2CC3CC3N2)cn1` (centres unmarked) [Example 6, 3-(2-Fluoropyridin-5-yloxymethyl)-2-azabicyclo[3.1.0]hexane dihydrochloride], the “Dose (reversal of formalin induced nociception)” value in the data set with Male Wister rats is on record as “≦30 mg/kg, p.o”. Moreover, the Ki in data set [2] (read-out: Ki) was found to be 3.9 nM.

For the compound `Brc1cncc(OCC2CC3CC3N2)c1` (centres unmarked) [Example 8, 3-(5-Bromopyridin-3-yloxymethyl)-2-azabicyclo[3.1.0]hexane tartrate], the Ki in data set [2] (read-out: Ki) was 6.4 nM.

With `Fc1ncccc1OCC1CC2CC2N1` (centres unmarked) [Example 9, 3-(2-Fluoropyridin-3-yloxymethyl)-2-azabicyclo[3.1.0]hexane tartrate], the Ki in data set [2] (read-out: Ki) was 17.4 nM.

With `CN1C(COc2cccnc2F)CC2CC21` (centres unmarked) [Example 10, 3-(2-Fluoropyridin-3-yloxymethyl)-2-methyl-2-azabicyclo[3.1.0]hexane tartrate], the Ki in data set [2] (read-out: Ki) stood at 31.9 nM.

`CN1C(COc2cccnc2Cl)CC2CC21` (centres unmarked) [Example 11, 3-(2-Chloropyridin-3-yloxymethyl)-2-methyl-2-azabicyclo[3.1.0]hexane]: in data set [1], the Kb came to 13.5 nM. Besides, in data set [2] (read-out: Ki), the inhibitory constant (Ki) stood at 28.1 nM.

With `Cc1ncccc1OCC1CC2CC2N1C` (centres unmarked) [Example 12, 2-Methyl-3-(2-methylpyridin-3-yloxymethyl)-2-azabicyclo[3.1.0]hexane], the Ki in data set [2] (read-out: Ki) is 231 nM.

On to `Cc1ccc(OCC2CC3CC3N2C)cn1` (centres unmarked) [Example 13, 2-Methyl-3-(2-methylpyridin-5-yloxymethyl)-2-azabicyclo[3.1.0]hexane], for which, in data set [1] (setting [5]), the Kb turned out to be 5 nM. Further, the Ki in data set [2] worked out at 0.3 nM.

As to `CN1C(COc2ccc(Cl)nc2)CC2CC21` (centres unmarked) [Example 14, 3-(2-Chloropyridin-5-yloxymethyl)-2-methyl-2-azabicyclo[3.1.0]hexane], the Ki in data set [2] (read-out: Ki) was determined as 3.4 nM.

`CN1C(COc2ccc(F)nc2)CC2CC21` (centres unmarked) [Example 15, 3-(2-Fluoropyridin-5-yloxymethyl)-2-methyl-2-azabicyclo[3.1.0]hexane]: in data set [2] (read-out: Ki), the Ki was 1.1 nM.

As for `CN1C(COc2cncc(Cl)c2)CC2CC21` (centres unmarked) [Example 16, 3-(5-Chloropyridin-3-yloxymethyl)-2-methyl-2-azabicyclo[3.1.0]hexane], the Kb in data set [1] is 0.4 nM. Moreover, the inhibitory constant (Ki) in data set [2] (read-out: Ki) was 0.37 nM.

As to `CN1C(COc2cncc(Br)c2)CC2CC21` (centres unmarked) [Example 17, 3-(5-Bromopyridin-3-yloxymethyl)-2-methyl-2-azabicyclo[3.1.0]hexane dihydrochloride], the Ki in data set [2] (read-out: Ki) is 4.2 nM.

As for `Cc1ccc(OCC2CC3CC3N2)cn1` (centres unmarked) [Example 18, 3-(2-Methylpyridin-5-yloxymethyl)-2-azabicyclo[3.1.0]hexane], the Kb in data set [1] (setting [5]) turned out to be 22 nM. For the same compound, the Ki in data set [2] was determined as 26.1 nM.

Turning to `c1cncc(OCC2CCC3CC3N2)c1` (centres unmarked) [Example 19, 3-(Pyridin-3-yloxymethyl)-2-azabicyclo[4.1.0]heptane hydrochloride], in data set [2] (read-out: Ki), the Ki stood at 8.2 nM.

`Clc1cncc(OCC2CCC3CC3N2)c1` (centres unmarked) [Example 20, 3-(5-Chloropyridin-3-yloxymethyl)-2-azabicyclo[4.1.0]heptane hydrochloride]: the Ki in data set [2] (read-out: Ki) was found to be 216 nM.

Source of the values: US8735423B2, “Bicyclic compounds as α4β2 nicotinic acetylcholine receptor ligands” (priority 2009, dated 2014).
